38 compounds from ChEMBL document CHEMBL1142817, “Modeling K(m) values using electrotopological state: substrates for cytochrome P450 3A4-mediated metabolism” (Bioorg Med Chem Lett, 2005) can be followed below.

Sequence of Cytochrome P450 3A4 (P08684 whole entry): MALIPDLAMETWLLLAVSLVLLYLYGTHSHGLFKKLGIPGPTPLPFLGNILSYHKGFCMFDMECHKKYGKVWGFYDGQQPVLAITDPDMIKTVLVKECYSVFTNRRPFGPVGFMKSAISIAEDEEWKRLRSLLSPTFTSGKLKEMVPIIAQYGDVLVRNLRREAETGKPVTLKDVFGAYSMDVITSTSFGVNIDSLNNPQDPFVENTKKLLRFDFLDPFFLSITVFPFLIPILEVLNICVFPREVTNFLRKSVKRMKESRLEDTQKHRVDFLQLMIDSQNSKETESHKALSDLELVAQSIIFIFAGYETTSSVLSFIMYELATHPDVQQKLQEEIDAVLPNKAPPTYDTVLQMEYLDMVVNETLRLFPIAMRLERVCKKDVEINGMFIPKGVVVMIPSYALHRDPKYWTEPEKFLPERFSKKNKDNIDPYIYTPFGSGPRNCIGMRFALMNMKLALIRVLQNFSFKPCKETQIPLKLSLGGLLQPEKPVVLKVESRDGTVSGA

The data set addresses Cytochrome P450 3A4 (Homo sapiens, UniProt P08684). The experiment in a line: log (1/Km) value for human liver microsome cytochrome P450 3A4. The settings on record: microsomes. (Liver microsomes are vesicles of endoplasmic reticulum, rich in cytochrome P450 enzymes.)
As to `C[C@]12CCC(=O)C=C1CC[C@@H]1[C@@H]2[C@@H](O)C[C@@]2(C)[C@H]1CC[C@]2(O)C(=O)CO` [HYDROCORTISONE], the “Log 1/Km” value is -1.1818.

Regarding `CN(C)CCCC1(c2ccc(F)cc2)OCc2cc(C#N)ccc21` (stereo not drawn) [CITALOPRAM], the “Log 1/Km” value was -2.4548.

For the compound `ClC(Cl)Br` [BROMODICHLOROMETHANE], the “Log 1/Km” value is given as -1.4472.

Turning to `O=c1[nH]c2ccccc2n1C1CCN(CCCC(c2ccc(F)cc2)c2ccc(F)cc2)CC1` [PIMOZIDE], the “Log 1/Km” value is on record as -0.7559.

With `CN(C)c1ccc([C@H]2C[C@]3(C)[C@@H](CC[C@]3(O)CCCO)C3CCC4=CC(=O)CCC4=C32)cc1` (single isomer, unassigned) [ONAPRISTONE], the “Log 1/Km” value is -1.2923.

Take `COc1ccc(C(CN(C)C)C2(O)CCCCC2)cc1` (stereo not drawn) [VENLAFAXINE]: the “Log 1/Km” value is recorded as 0.0899.

Regarding `O=C(N[C@H](/C=C/S(=O)(=O)c1ccccc1)CCc1ccccc1)[C@H](Cc1ccccc1)NC(=O)N1CCOCC1`, the “Log 1/Km” value was -1.4843.

As for `COc1ccc2[nH]c([S+]([O-])Cc3ncc(C)c(OC)c3C)nc2c1` (stereo not drawn) [OMEPRAZOLE], the “Log 1/Km” value is on record as -1.6902.

In the case of `CC[C@]1(O)C[C@@H]2CN(CCc3c([nH]c4ccccc34)[C@@](C(=O)OC)(c3cc4c(cc3OC)N(C)[C@H]3[C@@](O)(C(N)=O)[C@H](O)[C@]5(CC)C=CCN6CC[C@]43[C@@H]65)C2)C1` [VINDESINE], the “Log 1/Km” value is -1.3927.

For the compound `CS(=O)(=O)O.C[C@@H]1C[C@H]2[C@@H]3CCC4=CC(=O)C=C[C@]4(C)C3=CC[C@]2(C)[C@H]1C(=O)CN1CCN(c2cc(N3CCCC3)nc(N3CCCC3)n2)CC1` [TIRILAZAD MESYLATE], the “Log 1/Km” value is recorded as -0.2601.

As to `C=CC[C@@H]1/C=C(\C)C[C@H](C)C[C@H](OC)[C@H]2O[C@@](O)(C(=O)C(=O)N3CCCC[C@H]3C(=O)O[C@H](/C(C)=C/[C@@H]3CC[C@@H](O)[C@H](OC)C3)[C@H](C)[C@@H](O)CC1=O)[C@H](C)C[C@@H]2OC` [TACROLIMUS ANHYDROUS], the “Log 1/Km” value is -0.792.

On to `CC(=O)O[C@@]12CO[C@@H]1C[C@H](O)[C@@]1(C)C(=O)[C@H](O)C3=C(C)[C@@H](OC(=O)[C@H](O)[C@@H](NC(=O)OC(C)(C)C)c4ccccc4)C[C@@](O)([C@@H](OC(=O)c4ccccc4)[C@H]21)C3(C)C.O.O.O` [DOCETAXEL], for which the “Log 1/Km” value was -0.0414.

For `CC(=O)O[C@H]1C(=O)[C@@]2(C)[C@H]([C@H](OC(=O)c3ccccc3)[C@]3(O)C[C@H](OC(=O)[C@H](O)[C@@H](NC(=O)c4ccccc4)c4ccccc4)C(C)=C1C3(C)C)[C@]1(OC(C)=O)CO[C@@H]1C[C@@H]2O` [PACLITAXEL], the “Log 1/Km” value is -1.2553.

With `C[C@H](CCC(=O)NCCS(=O)(=O)O)[C@H]1CC[C@H]2[C@@H]3[C@H](O)C[C@@H]4C[C@H](O)CC[C@]4(C)[C@H]3CC[C@]12C` [TAUROCHENODEOXYCHOLATE], the “Log 1/Km” value is recorded as -1.9542.

With `CC[C@H]1OC(=O)[C@H](C)[C@@H](O[C@H]2C[C@@](C)(OC)[C@@H](O)[C@H](C)O2)[C@H](C)[C@@H](O[C@@H]2O[C@H](C)C[C@H](N(C)C)[C@H]2O)[C@](C)(O)C[C@@H](C)C(=O)[C@H](C)[C@@H](O)[C@]1(C)O` [ERYTHROMYCIN], the “Log 1/Km” value is listed as -1.7853.

Turning to `CC/C(=C(\c1ccccc1)c1ccc(OCCN(C)C)cc1)c1ccccc1` [TAMOXIFEN], the “Log 1/Km” value is reported as -1.9912.

Take `CN(C)Cc1nnc2n1-c1ccc(Cl)cc1C(c1ccccc1)=NC2` [ADINAZOLAM]: the “Log 1/Km” value is listed as -1.9628.

`CO[C@H]1/C=C/O[C@@]2(C)Oc3c(C)c(O)c4c(c3C2=O)C2=NC3(CCN(CC(C)C)CC3)NC2=C(NC(=O)/C(C)=C\C=C\[C@H](C)[C@H](O)[C@@H](C)[C@@H](O)[C@@H](C)[C@H](OC(C)=O)[C@@H]1C)C4=O` [RIFABUTIN]: the “Log 1/Km” value is recorded as -1.0373.

In the case of `CO[C@H]1C[C@@H]2CC[C@@H](C)[C@@](O)(O2)C(=O)C(=O)N2CCCC[C@H]2C(=O)O[C@H]([C@H](C)C[C@@H]2CC[C@@H](O)[C@H](OC)C2)CC(=O)[C@H](C)/C=C(\C)[C@@H](O)[C@@H](OC)C(=O)[C@H](C)C[C@H](C)/C=C/C=C/C=C/1C` [SIROLIMUS], the “Log 1/Km” value was -0.9069.

As to `CCCCN1CCCC[C@@H]1C(=O)Nc1c(C)cccc1C` [BUPIVACAINE], the “Log 1/Km” value is recorded as -2.0967.

In the case of `CC[C@]1(O)C[C@@H]2CN(CCc3c([nH]c4ccccc34)[C@@](C(=O)OC)(c3cc4c(cc3OC)N(C)[C@H]3[C@@](O)(C(=O)OC)[C@H](OC(C)=O)[C@]5(CC)C=CCN6CC[C@]43[C@@H]65)C2)C1` [VINBLASTINE], the “Log 1/Km” value was -0.834.

For the compound `CC(c1cc2ccccc2s1)N(O)C(N)=O` (stereo not drawn) [ZILEUTON], the “Log 1/Km” value is -2.1938.

Regarding `O=[N+]([O-])c1ccc2ccc3cccc4ccc1c2c34` [1-NITROPYRENE], the “Log 1/Km” value was -0.5185.

In the case of `Cc1nnc2n1-c1ccc(Cl)cc1C(c1ccccc1)=NC2` [ALPRAZOLAM], the “Log 1/Km” value was -2.4232.

Consider `CC(C)(C)NCC(O)COc1cccc2c1CCC(=O)N2` (stereo not drawn) [CARTEOLOL], for which the “Log 1/Km” value is -1.8432.

For the compound `CN(C)c1ccc([C@H]2C[C@@]3(C)[C@@H](CC[C@@]3(O)/C=C\CO)[C@@H]3CCC4=CC(=O)CCC4=C32)cc1` [LILOPRISTONE], the “Log 1/Km” value is given as -0.9445.

Regarding `CCOc1ccc2ccc(=O)oc2c1` [ETHOXYCOUMARIN], the “Log 1/Km” value is on record as -3.4771.

As to `C/C=C1/C[C@@H](C)[C@@](C)(O)C(=O)OCC2=CCN3CC[C@@H](OC1=O)[C@@H]23` [SENECIONINE], the “Log 1/Km” value was -2.4772.

`CN1[C@@H]2CC[C@H]1C[C@@H](NC(=O)c1cc(Cl)cc3c1OC(C)(C)C3)C2` [ZATOSETRON]: the “Log 1/Km” value is listed as -2.3901.

Turning to `CCc1c2c(nc3ccc(OC(=O)N4CCC(N5CCCCC5)CC4)cc13)-c1cc3c(c(=O)n1C2)COC(=O)[C@]3(O)CC` [IRINOTECAN], the “Log 1/Km” value is reported as -1.2648.

As to `CC[C@H]1OC(=O)[C@H](C)[C@@H](O[C@H]2C[C@@](C)(OC)[C@@H](O)[C@H](C)O2)[C@H](C)[C@@H](O[C@@H]2O[C@H](C)C[C@H](N(C)C)[C@H]2O)[C@](C)(OC)C[C@@H](C)C(=O)[C@H](C)[C@@H](O)[C@]1(C)O` [CLARITHROMYCIN], the “Log 1/Km” value is on record as -1.6875.

As to `Cc1c(C)c2c(c(C)c1O)CCC(C)(COc1ccc(CC3SC(=O)NC3=O)cc1)O2` (stereo not drawn) [TROGLITAZONE], the “Log 1/Km” value is listed as -2.7918.

`CC(C)(C)c1cc(CC2SCNC2=O)cc(C(C)(C)C)c1O` (stereo not drawn) [TAZOFELONE]: the “Log 1/Km” value is on record as -0.996.

On to `Nc1ccc(S(=O)(=O)c2ccc(N)cc2)cc1` [DAPSONE], for which the “Log 1/Km” value was -2.2304.

`CN1C(=O)CN=C(c2ccccc2F)c2cc([N+](=O)[O-])ccc21` [FLUNITRAZEPAM]: the “Log 1/Km” value was -2.1892.

For `NC(=O)N1c2ccccc2C=Cc2ccccc21` [CARBAMAZEPINE], the “Log 1/Km” value was -2.6532.

As for `C/C=C/c1ccc(OC)c(CN[C@H]2C3CCN(CC3)[C@H]2C(c2ccccc2)c2ccccc2)c1`, the “Log 1/Km” value is recorded as -1.3424.

In the case of `CN(C)CCC=C1c2ccccc2CCc2ccccc21` [AMITRIPTYLINE], the “Log 1/Km” value is reported as -1.8407.
